US10280139B2, “Cytotoxic peptides and conjugates thereof” (priority 2014, dated 2019)

What follows are compounds tested on MDA-MB-231 clone 16, MDA-MB-231 clone 40, JimT-1 and HCC1954 cells (assay: Cell proliferation assays of anti-Her2 ADCs, results in words over the cell line panel). Conditions: Her2 high, medium and low cell lines.
Assay type: cell-based, human
Excerpt: Cells that naturally express target antigens or cell lines engineered to express target antigens are frequently used to assay the activity and potency of ADCs. For evaluation of the cell killing potency of anti-Her2 antibody ADCs in vitro, two engineered cell lines, MDA-MB-231 clone 16 and clone 40, and two endogenous cell lines, JimT-1 and HCC1954 cells were employed (Clinchy B, Gazdar A, Rabinovsky R, Yefenof E, Gordon B, Vitetta E S. Breast Cancer Res Treat. (2000) 61:217-228). MDA-MB-231 clone 16 cells stably express high copy numbers (˜5×10^5copies/cell) of recombinant human Her2 on the cell surface, while clone 40 expresses human Her2 at low levels (˜5×10^3 copies/cell). HCC1954 cells endogenously express high levels (˜5×10^5 copies/cell) of […] human Her2 in the surface while JimT-1 cells express human Her2 at a medium level (˜8×10^4 copies/cell). NCI-N87 cells express high levels of Her2 while A375 cell express low levels of Her2. An ADC should kill cells in an antigen-dependent manner, meaning that only cells that express sufficient antigen in the cell surface but not cells lacking the antigen will be killed. Therefore cell killing should not be observed MDA-MB-231 clone 40 cells.
(§1) To measure antigen-dependent cell killing, cell proliferation assays were conducted with Cell-Titer-Glo™ (Promega) five days after different cell types were incubated with various concentrations of ADCs (Riss et al., (2004) Assay Drug Dev Technol. 2:51-62).
Anti-Her2 ADCs prepared with compounds of the invention and conjugated site-specifically to anti-Her2 Cys mutant antibodies (see Table 5) were assayed in the aforementioned four cell lines to evaluate their cytotoxicity. […] In JimT-1 cells, a cell line with a medium level of Her2 expression, the cell killing activities by the ADCs varied widely. […] Many ADCs killed JimT-1 cell as effectively as HCC1954 and MDAMB231-16 cells (FIG. 1, Table 15). […] The significant differences of cytotoxic potency observed in JimT-1 cell amoung anti-Her2-LC-S159C ADCs have made it possible to rank the potency of the payloads. […] This is in contrast to the in vitro cell killing of both high and low Her2 expressing cell lines by free, unconjugated compounds of the invention (see Example 106,Table 14).

Structure (SMILES) | Cell killing activity of anti-Her2 ADCs
CC[C@H](C)[C@@H]([C@@H](CC(=O)N1CCC[C@H]1[C@H](OC)[C@@H](C)C(=O)N[C@@H](Cc1ccccc1)C(=O)O)OC)N(C)C(=O)[C@@H](Nc1nc(C)cc(C(=O)NCCNC(=O)CCCCCN2C(=O)C=CC2=O)n1)C(C)C [NL-38, (S)-2-((2R,3R)-3-((S)-1-((3R,4S,5S)-4-((S)-2-((4-((2-(6-(2,5-dioxo-2,5-dihydro-1H-pyrrol-1-yl)hexanamido)ethyl)carbamoyl)-6-methylpyrimidin-2-yl)amino)-N,3-dimethylbutanamido)-3-methoxy-5-methylheptanoyl)pyrrolidin-2-yl)-3-methoxy-2-methylpropanamido)-3-phenylpropanoic acid] | active in HCC1954 and MDAMB231-16 cells but not in JimT-1 cells
CC[C@H](C)[C@@H]([C@@H](CC(=O)N1CCC[C@H]1[C@H](OC)[C@@H](C)C(=O)N[C@@H](Cc1ccccc1)C(=O)O)OC)N(C)C(=O)[C@@H](NC(=O)N(CCCNC(=O)CCCCCN1C(=O)C=CC1=O)C(C)C)C(C)C [NL-30, (S)-2-((2R,3R)-3-((S)-1-((3R,4S,7S)-4-((S)-sec-butyl)-20-(2,5-dioxo-2,5-dihydro-1H-pyrrol-1-yl)-7,10-diisopropyl-3-methoxy-5-methyl-6,9,15-trioxo-5,8,10,14-tetraazaicosan-1-oyl)pyrrolidin-2-yl)-3-methoxy-2-methylpropanamido)-3-phenylpropanoic acid] | active in HCC1954 and MDAMB231-16 cells but not in JimT-1 cells
CC[C@H](C)[C@@H]([C@@H](CC(=O)N1CCC[C@H]1[C@H](OC)[C@@H](C)C(=O)N[C@@H](Cc1ccccc1)C(=O)NS(=O)(=O)CCCn1cc(CN2C(=O)C=CC2=O)nn1)OC)N(C)C(=O)[C@@H](Nc1nccc(C)n1)C(C)C [CL-24, (S)-2-((4-methylpyrimidin-2-yl)amino)-1-(((3R,4S,5S)-1-((S)-2-((1R,2R)-3-(((S)-N-1-(3-(4-((2,5-dioxo-2,5-dihydro-1H-pyrrol-1-yl)methyl)-1H-1,2,3-triazol-1-yl)propylsulfonamido)-1-oxo-3-phenylpropan-2-yl)amino)-1-methoxy-2-methyl-3-oxopropyl)pyrrolidin-1-yl)-3-methoxy-5-methyl-1-oxoheptan-4-yl)(methyl)amino)-3-methyl-1-oxobutane] | active in HCC1954 and MDAMB231-16 cells but not in JimT-1 cells
CC[C@H](C)[C@@H]([C@@H](CC(=O)N1CCC[C@H]1[C@H](OC)[C@@H](C)C(=O)N[C@@H](Cc1ccccc1)C(=O)Nc1ccc(CNC(=O)CCCCCN2C(=O)C=CC2=O)cc1)OC)N(C)C(=O)[C@@H](/N=C(\N(C)C)N1CCNCC1)C(C)C [CL-5, N-(4-((S)-2-((2R,3R)-3-((S)-1-((3R,4S,5S)-4-((S)-2-((E)-((dimethylamino)(piperazin-1-yl)methylene)amino)-N,3-dimethylbutanamido)-3-methoxy-5-methylheptanoyl)pyrrolidin-2-yl)-3-methoxy-2-methylpropanamido)-3-phenylpropanamido)benzyl)-6-(2,5-dioxo-2,5-dihydro-1H-pyrrol-1-yl)hexanamide] | active in HCC1954 and MDAMB231-16 cells but not in JimT-1 cells
CC[C@H](C)[C@@H]([C@@H](CC(=O)N1CCC[C@H]1[C@H](OC)[C@@H](C)C(=O)N[C@@H](Cc1ccccc1)P(=O)(O)O)OC)N(C)C(=O)[C@@H](/N=C(\N(C)C)N1CCN(C(=O)CCCn2cc(CN3C(=O)C=CC3=O)nn2)CC1)C(C)C [NL-21, ((R)-1-((2R,3R)-3-((S)-1-((3R,4S,5S)-4-((S)-2-((E)-((dimethylamino)(4-(4-(4-((2,5-dioxo-2,5-dihydro-1H-pyrrol-1-yl)methyl)-1H-1,2,3-triazol-1-yl)butanoyl)piperazin-1-yl)methylene)amino)-N,3-dimethylbutanamido)-3-methoxy-5-methylheptanoyl)pyrrolidin-2-yl)-3-methoxy-2-methylpropanamido)-2-phenylethyl)phosphonic acid] | active in HCC1954 and MDAMB231-16 cells but not in JimT-1 cells
CC[C@H](C)[C@@H]([C@@H](CC(=O)N1CCC[C@H]1[C@H](OC)[C@@H](C)C(=O)N[C@@H](Cc1ccccc1)P(=O)(O)O)OC)N(C)C(=O)[C@@H](N=C(N(C)C)N1CCN(C(=O)CCCCCN2C(=O)C=CC2=O)CC1)C(C)C (stereo in doubt) [NL-19, ((R)-1-((2R,3R)-3-((S)-1-((3R,4S,5S)-4-((S)-2-((E)-((dimethylamino)(4-(6-(2,5-dioxo-2,5-dihydro-1H-pyrrol-1-yl)hexanoyl)piperazin-1-yl)methylene)amino)-N,3-dimethylbutanamido)-3-methoxy-5-methylheptanoyl)pyrrolidin-2-yl)-3-methoxy-2-methylpropanamido)-2-phenylethyl)phosphonic acid] | active in HCC1954 and MDAMB231-16 cells but not in JimT-1 cells

Each compound was assayed on H526, KU812, CMK11-5 and Jurkat cells (assay: Cell proliferation assays of antibody 20507 ADCs, results in words over the cell line panel). Conditions: antigen expressing cells versus Jurkat.
Assay type: cell-based, human
Method: as §1

Structure (SMILES) | Cell killing activity of antibody 20507 ADCs
CC[C@H](C)C([C@@H](CC(=O)N1CCC[C@H]1[C@H](OC)[C@@H](C)C(=O)N[C@@H](Cc1ccccc1)C(=O)NS(=O)(=O)CCCn1cc(CN2C(=O)C=CC2=O)nn1)OC)N(C)C(=O)[C@@H](N=C(N(C)C)N(C)C)C(C)C (stereo partly drawn) [CL-9, (S)-2-((Bis(dimethylamino)methylene)amino)-1-(((3R,4S,5S)-1-((S)-2-((1R,2R)-3-(((S)-N-1-(3-(4-((2,5-dioxo-2,5-dihydro-1H-pyrrol-1-yl)methyl)-1H-1,2,3-triazol-1-yl)propylsulfonamido)-1-oxo-3-phenylpropan-2-yl)amino)-1-methoxy-2-methyl-3-oxopropyl)pyrrolidin-1-yl)-3-methoxy-5-methyl-1-oxoheptan-4-yl)(methyl)amino)-3-methyl-1-oxobutane] | active when conjugated to antibody 20507
CC[C@H](C)[C@@H]([C@@H](CC(=O)N1CCC[C@H]1[C@H](OC)[C@@H](C)C(=O)N[C@@H](Cc1ccccc1)C(=O)O)OC)N(C)C(=O)[C@@H](/N=C(\N(C)C)N1CCN(C(=O)CCCCCN2C(=O)C=CC2=O)CC1)C(C)C [NL-4, (S)-2-((2R,3R)-3-((S)-1-((3R,4S,5S)-4-((S)-2-((E)-((dimethylamino)(4-(6-(2,5-dioxo-2,5-dihydro-1H-pyrrol-1-yl)hexanoyl)piperazin-1-yl)methylene)amino)-N,3-dimethylbutanamido)-3-methoxy-5-methylheptanoyl)pyrrolidin-2-yl)-3-methoxy-2-methylpropanamido)-3-phenylpropanoic acid] | active when conjugated to antibody 20507
CC[C@H](C)[C@@H]([C@@H](CC(=O)N1CCC[C@H]1[C@H](OC)[C@@H](C)C(=O)N[C@H](Cc1ccccc1)C(=O)Nc1ccc(CNC(=O)CCCCCN2C(=O)C=CC2=O)cc1)OC)N(C)C(=O)[C@@H](N=C(N(C)C)N(C)C)C(C)C [CL-1, N-(4-((R)-2-((2R,3R)-3-((S)-1-((3R,4S,5S)-4-((S)-2-((bis(dimethylamino)methylene)amino)-N,3-dimethylbutanamido)-3-methoxy-5-methylheptanoyl)pyrrolidin-2-yl)-3-methoxy-2-methylpropanamido)-3-phenylpropanamido)benzyl)-6-(2,5-dioxo-2,5-dihydro-1H-pyrrol-1-yl)hexanamide] | active when conjugated to antibody 20507
